Experimental findings from patent US20180264121A1, “CANNABINOID-CONTAINING ORAL PHARMACEUTICAL COMPOSITION, METHOD FOR PREPARING AND USING SAME” (PRATI-DONADUZZI & CIA LTDA., priority 2015, published 2018) are described below.

The nature of this series: Solubility of the API (quality-control specification). Format: physicochemical. From the text: Validated Analytical Methodology and Acceptable Limits to Ensure Identity, Quality and Purity of the API.

As for `C=C(C)[C@@H]1CCC(C)=C[C@H]1c1c(O)cc(CCCCC)cc1O` [API, cannabidiol], the SOLUBILITY result is reported as “SOLUBLE” (in chloroform), “SOLUBLE” (in ethanol 96%), “SLIGHTLY SOLUABLE IN HEXANE” (in hexane) and “INSOLUBLE” (in purified water).
